Source: publication PMC11521183 (Emerging Infectious Diseases, 2024)

System: reference seasonal A(H3N2) viruses A/Louisiana/50/2017 and A/Louisiana/49/2017
Assay: microbe, parasite or virus in culture
Assay type: cell-based, influenza A virus
Settings: read-out: Mean EC50 + SD

SMILES: O=C1c2c(O)c(=O)ccn2N([C@@H]2c3ccccc3SCc3c2ccc(F)c3F)[C@@H]2COCCN12 [baloxavir, baloxavir acid]
- EC50: 14.1 nM
